Columns and labels:
Format in all cases: cell-based, human
hES cells [1] = assay: GCTM-2/PCNA immunostaining cell count, dissociated hES cells without MEF and serum (Example 1); conditions: 4 days, no MEF, no serum
Source text: (A) Quantification of the number of GCTM2+ cells. (B) Quantification of the number of PCNA+/GCTM2+ cells.
In some experiments, hES-3 cells plated onto 8-well chamber slides, with or without MEF, were fixed in ethanol or paraformaldehyde (for PDGFR) the day after plating. In others, hES-3 cells were mechanically dissociated, in order to obtain a monolayer culture and then plated onto 8-well chamber slides without MEF and were fixed in ethanol 4 days after the first treatment. Immunostaining was performed using the following antibodies: anti human PDGFR-α or PDGFR-β (R&D Systems Inc.), GCTM-2, and/or PCNA (Chemicon, Boronia, VIC, Australia), TRA-1-60, Oct-4. Nuclei were evidenced by Hoechst-33342. Slides were mounted and observed by fluorescent microscopy with a Leica microscope at ×10, ×20 and ×40. Specificity was verified by the absence of any staining in the negative controls. In some experiments, cells were counted to determine the ratio of GCTM-2 positive (GCTM2+), PCNA positive (PCNA+) and GCTM2+/PCNA+ cells within the global population.

[2] = tested on: ERKs (Erk1 and Erk2) in hES cells; assay: ERK phosphorylation Western blot in hES cells (Example 1); conditions: hES cells, 5 min; S1P 10 μM, LPA 50 M, PDGF 20 ng/ml
Procedure: RT-PCR for LPL receptors (A, B), PDGFR-[…] (alpha) and PDGFR-[…] (beta) (C), SPK-1 and SPK-2 (D), with (+) or without (−) RT. Immunostaining of hES cells with Hoechst 33342 (E, H), PDGFR-[…] (F) or PDGFR-[…] (I) and GCTM-2 (G, J) antibodies. S1P, LPA and PDGF stimulate ERKs phosphorylation in hES cells. (K) Western blots experiment were performed using protein lysate from hES cells. Cells were pre-treated or not with U0126 (30 μM, 1 hr) and incubated for 5 min in the absence (C, control) or presence of S1P (S, 10 μM), LPA (L, […]) or PDGF (P, 20 ng/ml). The phosphorylation of Erk1 and Erk2 (P-Erk1 and P-Erk2) was assessed by immunoblotting with a polyclonal anti-active MAP kinase as described in Materials and Methods. After a stripping procedure, the same blots were reprobed with a monoclonal anti-MAP kinase, allowed the detection of Erk1 and Erk2.
hES-3 cells plated without MEF for 24 hrs were depleted of serum for a further 18 hrs. Cells pre-treated or not with U0126 (Sigma, 30 μM, 1 hr), were incubated in the presence of the different agents for 5 min and were lysed by removal of the supernatants and addition of a reducing loading buffer containing 1 mM sodium orthovanadate (Sigma). Protein lysates (approx. 80 μg) were separated by SDS-polyacrylamide gel electrophoresis (10% polyacrylamide, w/v), transferred to nitrocellulose (Hybond-nitrocellulose, Amersham) and immunoblotting was carried out using rabbit polyclonal anti-active mitogen-activated protein (MAPK) antibodies raised against a dually phosphorylated MAPK peptide (Promega, Madison, Wis., USA). Peroxidase-coupled secondary antibody (Dako) was detected by exposure of autoradiographic films in the presence of a chemiluminescent detection reagent (ECL, Amersham). Stripping of antibodies was achieved and membranes were then reprobed with rabbit polyclonal anti-ERK1/2 antibodies (Promega), and then with peroxidase-coupled secondary antibodies (Dako). Membranes probed with either rabbit polyclonal anti-active p38 (Promega) or rabbit polyclonal anti-active JNK (Promega) antibodies were also performed, using the same procedure as described above.

hES cells [3] = assay: Spontaneous differentiation of hES colonies on MEF in serum-free medium, morphology (Example 2); conditions: 2 weeks serum-free on MEF; S1P 10 μM, PDGF-AB 20 ng/ml, LPA up to 50 μM
Procedure: hES-3 cells were cultured as previously described^1. The serum-free culture medium consisted of DMEM (without sodium pyruvate, glucose 4500 mg/l, Invitrogen, Mount Waverley, VIC, Australia) supplemented with insulin/transferrin/selenium 1%, β-mercaptoethanol 0.1 mM, NEAA 1%, glutamine 2 mM, Hepes 25 mM, penicillin 50 U/ml and streptomycin […] (all from Invitrogen). Media was changed every 2 days and cells were passaged every week S1P and dihydro-S1P were obtained from Biomol (Plymouth Meeting, Pa., USA). LPA was obtained from Sigma (Castle Hill, NSW, Australia). Extemporaneous dilutions of all lipids were made in water containing 0.1% fatty acid-free bovine serum albumin (BSA) (Sigma). […] Human PDGF-AB, PDGF-AA, PDGF-BB were from Prepro Tech Inc. (Rocky Hill, N.J., USA) and were used at 20 ng/ml.

hES cells [4] = assay: Spontaneous differentiation of hES colonies on MEF in serum-free medium, morphology (Example 1); conditions: 8 days serum-free on MEF; S1P 10 μM, PDGF 20 ng/ml, LPA up to 50 μM
Procedure: (A) hES cells grown with MEF, before the depletion of serum from the medium. (B, C, D, E) hES cells grown without serum after 8 days, in the absence (B) or in the presence of S1P (10 μM) (C), PDGF (20 ng/ml) (D), S1P (10 μM) plus PDGF (20 ng/ml) (E). (F) hES cells grown without serum, in the presence or in the absence (control) of S1P (10 μM), PDGF (20 ng/ml), S1P (10 μM) plus PDGF (20 ng/ml). In A-E, data are representative of at least 3 independent experiments. In F, data expressed as percentages of alkaline phosphatase activity in absence of serum for eight days (% of control), are the means±SEM of at least 2 independent experiments, each run in triplicate.
hES-3 cells were cultured as previously described^1. The serum-free culture medium consisted of DMEM (without sodium pyruvate, glucose 4500 mg/l, Invitrogen, Mount Waverley, VIC, Australia) supplemented with insulin/transferrin/selenium 1%, β-mercaptoethanol 0.1 mM, NEAA 1%, glutamine 2 mM, Hepes 25 mM, penicillin 50 U/ml and streptomycin […] (all from Invitrogen). Medium was changed every 2 days and cells were passaged every week. S1P and dihydro-S1P were obtained from Biomol (Plymouth Meeting, Pa., USA) and were dissolved in methanol. LPA was obtained from Sigma (Castle Hill, NSW, Australia) and was dissolved in ethanol. Extemporaneous dilutions of all lipids were made in water containing 0.1% fatty acid-free bovine serum albumin (BSA) (Sigma). Human PDGF-AB, PDGF-AA, PDGF-BB were from PreproTech Inc. (Rocky Hill, N.J., USA).

Compound | proliferating rate of hES cells (PCNA+) versus control (hES cells [1]) | phosphorylation of ERKs [2] | size or morphology of hES cell colonies (spontaneous differentiation) (hES cells [3]) | colony growth/morphology (spontaneous differentiation) (hES cells [4]) | cells GCTM2+ (hES cells [1]; mechanically dissociated, S1P 10 μM, PDGF 10 ng/ml)
CCCCCCCCCCCCC/C=C/[C@@H](O)[C@@H](N)COP(=O)(O)O [S1P, Sphingosine-1-phosphate] | no statistically significant difference | stimulated the phosphorylation of ERKs | flatter and less differentiated | flatter and less differentiated | 
PDGF | no statistically significant difference | stimulated the phosphorylation of ERKs | flatter and less differentiated | flatter and less differentiated | 53.7±13.2%

Source: patent US7604990B2, “Methods of regulating differentiation in stem cells” (ES Cell International Pte Ltd., priority 2002, dated 2009)
